Assay results taken from patent US7932242B2, “Substituted phenoxy-and phenylthio-derivatives for treating proliferative disorders” (Temple University - Of The Commonwealth System of Higher …, priority 2004, dated 2011).
Structures can show the parent of a compound that is named as a salt. Where two headings read alike, the source gives them in different places. Each block holds one compound with its values, some of them ahead of it.

What was measured:
Assay type in all cases: cell-based
DU145 = experiment: Tumor cell growth inhibition, Trypan blue exclusion, DU145; conditions: Homo sapiens, cell viability after 96 hours vs vehicle (DMSO)
Experimental: (§1) The effect of Compounds of Formula I on tumor cells of prostate, colon, lung, pancreatic, brain, renal, gastrointestinal, epidermal, lymphocytic, ovary and breast origin was examined by utilizing a variety of cancer cell lines (listed in Table 6). Cells were plated at density levels of 1.0×10^5 cells per well in six-well plates. Cell cultures were maintained at 37° C. in a humidified atmosphere of 5% CO2.
(§2) In addition, DU-145 cells were treated with three additional compounds of the invention: (E)-4-(3-(5-((2,4,6-trimethoxystyrylsulfonyl)methyl)-2-methoxyphenoxy)propyl)morpholine; (E)-5-((2,4,6-trimethoxystyrylsulfonyl)methyl)-2-methoxyphenyl 2-(dimethylamino)acetate; and (E)-5-((2,4,6-trimethoxystyrylsulfonyl)methyl)-2-methoxyphenyl 4-methylbenzenesulfonate, the structures of which are shown in Table 7.
(§3) Values are reported as the GI50, i.e., the concentration (μM) required for 50% growth inhibition as compared to vehicle (DMSO) treated cells. The notations “ER+” and “ER−” designate breast cancer lines that are responsive and non-responsive to estrogen, respectively. The notations “AR+” and “AR−” designate prostate cancer lines that are responsive and non-responsive to androgens, respectively. […] For cell lines designated by “*”, the dose response curve for the compound (E)-5-((2,4,6-trimethoxystyrylsulfonyl)methyl)-2-methoxyphenol (Example 1) is set forth in FIG. 1.

BT20 = experiment: Tumor cell growth inhibition, Trypan blue exclusion, BT20; conditions: Homo sapiens, BT-20; BT20, Breast (Er−); cell viability after 96 hours vs vehicle (DMSO)
Experimental: as §1, §2, §3

T47D = experiment: Tumor cell growth inhibition, Trypan blue exclusion, T47D; conditions: Homo sapiens, Breast (Er+), cell viability after 96 hours vs vehicle (DMSO)
Experimental: as §1
(§4) Cells of 36 different cell lines were treated with (E)-5-((2,4,6-trimethoxystyrylsulfonyl)methyl)-2-methoxyphenol (Example 1) or (E)-5-((2,4,6-trimethoxystyrylsulfonyl)methyl)-2-methoxy-phenyl dihydrogen phosphate disodium salt (Example 5) at doses ranging from 2 nM to 10 nM concentration, and cell viability was determined after 96 hours by the Trypan blue exclusion method. In addition, DU-145 cells were treated with three additional compounds of the invention: (E)-4-(3-(5-((2,4,6-trimethoxystyrylsulfonyl)methyl)-2-methoxyphenoxy)propyl)morpholine; (E)-5-((2,4,6-trimethoxystyrylsulfonyl)methyl)-2-methoxyphenyl 2-(dimethylamino)acetate; and (E)-5-((2,4,6-trimethoxystyrylsulfonyl)methyl)-2-methoxyphenyl 4-methylbenzenesulfonate, the structures of which are shown in Table 7.
(§5) Values are reported as the GI50, i.e., the concentration (μM) required for 50% growth inhibition as compared to vehicle (DMSO) treated cells. […]

MCF-7 = experiment: Tumor cell growth inhibition, Trypan blue exclusion, MCF-7; conditions: Homo sapiens, MCF7; MCF-7, Breast (Er+); cell viability after 96 hours vs vehicle (DMSO)
Experimental: as §1, §4, §5

LNCAP = experiment: Tumor cell growth inhibition, Trypan blue exclusion, LNCAP; conditions: Homo sapiens, Prostate (Ar+), cell viability after 96 hours vs vehicle (DMSO)
Experimental: as §1, §4, §5

PC-3 = experiment: Tumor cell growth inhibition, Trypan blue exclusion, PC-3; conditions: Homo sapiens; PC-3, Prostate; cell viability after 96 hours vs vehicle (DMSO)
Experimental: as §1, §4, §5

OV-CAR-3 = experiment: Tumor cell growth inhibition, Trypan blue exclusion, OV-CAR-3; conditions: Homo sapiens, OVCAR-3; OV-CAR-3, Ovarian; cell viability after 96 hours vs vehicle (DMSO)
Experimental: as §1, §4, §5

Sk-OV-3 = experiment: Tumor cell growth inhibition, Trypan blue exclusion, Sk-OV-3; conditions: Homo sapiens; Sk-OV-3, Ovarian; cell viability after 96 hours vs vehicle (DMSO)
Experimental: as §1, §4, §5

MIA-PACA2 = experiment: Tumor cell growth inhibition, Trypan blue exclusion, MIA-PACA2; conditions: Homo sapiens, MIA PaCa-2; MIA-PACA2, Pancreatic; cell viability after 96 hours vs vehicle (DMSO)
Experimental: as §1, §4, §5

U87 = experiment: Tumor cell growth inhibition, Trypan blue exclusion, U87; conditions: Homo sapiens, U-87 MG; U87, Glioblastoma; cell viability after 96 hours vs vehicle (DMSO)
Experimental: as §1, §4, §5

H157 = experiment: Tumor cell growth inhibition, Trypan blue exclusion, H157; conditions: Homo sapiens, NCI-H157; H157, Nsclc; cell viability after 96 hours vs vehicle (DMSO)
Experimental: as §1, §4, §5

A549 = experiment: Tumor cell growth inhibition, Trypan blue exclusion, A549; conditions: Homo sapiens; A549, Nsclc; cell viability after 96 hours vs vehicle (DMSO)
Experimental: as §1, §4, §5

H187 = experiment: Tumor cell growth inhibition, Trypan blue exclusion, H187; conditions: Homo sapiens, NCI-H187; H187, Sclc; cell viability after 96 hours vs vehicle (DMSO)
Experimental: as §1, §4, §5

N417 = experiment: Tumor cell growth inhibition, Trypan blue exclusion, N417; conditions: N417, Sclc; cell viability after 96 hours vs vehicle (DMSO)
Experimental: as §1, §4, §5

AGS = experiment: Tumor cell growth inhibition, Trypan blue exclusion, AGS; conditions: Homo sapiens, Gastric, cell viability after 96 hours vs vehicle (DMSO)
Experimental: as §1, §4, §5

RF1 = experiment: Tumor cell growth inhibition, Trypan blue exclusion, RF1; conditions: RF1, Gastric; cell viability after 96 hours vs vehicle (DMSO)
Experimental: as §1, §4, §5

RF48 = experiment: Tumor cell growth inhibition, Trypan blue exclusion, RF48; conditions: RF48, Gastric; cell viability after 96 hours vs vehicle (DMSO)
Experimental: as §1, §4, §5

CAKI-2 = experiment: Tumor cell growth inhibition, Trypan blue exclusion, CAKI-2; conditions: Homo sapiens; CAKI-2, Renal; cell viability after 96 hours vs vehicle (DMSO)
Experimental: as §1, §4, §5

COLO-320 = experiment: Tumor cell growth inhibition, Trypan blue exclusion, COLO-320; conditions: Homo sapiens; COLO-320, Colo-Rectal; cell viability after 96 hours vs vehicle (DMSO)
Experimental: as §1, §4, §5

DLD-1 = experiment: Tumor cell growth inhibition, Trypan blue exclusion, DLD-1; conditions: Homo sapiens; DLD-1, Colo-Rectal; cell viability after 96 hours vs vehicle (DMSO)
Experimental: as §1, §4, §5

HCT-116 = experiment: Tumor cell growth inhibition, Trypan blue exclusion, HCT-116; conditions: Homo sapiens; HCT-116, Colo-Rectal; cell viability after 96 hours vs vehicle (DMSO)
Experimental: as §1, §4, §5

HCT-15 = experiment: Tumor cell growth inhibition, Trypan blue exclusion, HCT-15; conditions: Homo sapiens; HCT-15, Colo-Rectal; cell viability after 96 hours vs vehicle (DMSO)
Experimental: as §1, §4, §5

SW480 = experiment: Tumor cell growth inhibition, Trypan blue exclusion, SW480; conditions: Homo sapiens; SW480, Colo-Rectal; cell viability after 96 hours vs vehicle (DMSO)
Experimental: as §1, §4, §5

SK-MEL-28 = experiment: Tumor cell growth inhibition, Trypan blue exclusion, SK-MEL-28; conditions: Homo sapiens; SK-MEL-28, Melanoma; cell viability after 96 hours vs vehicle (DMSO)
Experimental: as §1, §4, §5

CEM [1] = experiment: Tumor cell growth inhibition, Trypan blue exclusion, CEM; conditions: Homo sapiens, CCRF-CEM, Leukemic, cell viability after 96 hours vs vehicle (DMSO)
Experimental: as §1, §4, §5

K562 = experiment: Tumor cell growth inhibition, Trypan blue exclusion, K562; conditions: Homo sapiens; K562, Cml; cell viability after 96 hours vs vehicle (DMSO)
Experimental: as §1, §4, §5

MOLT-4 = experiment: Tumor cell growth inhibition, Trypan blue exclusion, MOLT-4; conditions: Homo sapiens; MOLT-4, T-Lymphoblastic: All; cell viability after 96 hours vs vehicle (DMSO)
Experimental: as §1, §4, §5

Namalwa = experiment: Tumor cell growth inhibition, Trypan blue exclusion, Namalwa; conditions: Burkitt's Lymphoma (B-Cell), cell viability after 96 hours vs vehicle (DMSO)
Experimental: as §1, §4, §5

Daudi = experiment: Tumor cell growth inhibition, Trypan blue exclusion, Daudi; conditions: Homo sapiens, Burkitt's Lymphoma (B-Cell), cell viability after 96 hours vs vehicle (DMSO)
Experimental: as §1, §4, §5

Raji = experiment: Tumor cell growth inhibition, Trypan blue exclusion, Raji; conditions: Homo sapiens, Burkitt's Lymphoma (B-Cell), cell viability after 96 hours vs vehicle (DMSO)
Experimental: as §1, §4, §5

Mes-Sa = experiment: Tumor cell growth inhibition, Trypan blue exclusion, Mes-Sa; conditions: Homo sapiens, Sarcoma, cell viability after 96 hours vs vehicle (DMSO)
Experimental: as §1, §4, §5

Mes-Sa/Dx5 = experiment: Tumor cell growth inhibition, Trypan blue exclusion, Mes-Sa/Dx5; conditions: Homo sapiens; Mes-Sa/Dx5, Resistant Sarcoma; cell viability after 96 hours vs vehicle (DMSO)
Experimental: as §1, §4, §5

CEM [2] = experiment: Tumor cell growth inhibition, Trypan blue exclusion, Cem (second listing); conditions: Homo sapiens, Leukemic (second listing, parent of Cem/C2), cell viability after 96 hours vs vehicle (DMSO)
Experimental: as §1, §4, §5

Cem/C2 = experiment: Tumor cell growth inhibition, Trypan blue exclusion, Cem/C2; conditions: Homo sapiens; Cem/C2, Resistant Leukemic; cell viability after 96 hours vs vehicle (DMSO)
Experimental: as §1, §4, §5

2008 = experiment: Tumor cell growth inhibition, Trypan blue exclusion, 2008; conditions: 2008, Ovarian; cell viability after 96 hours vs vehicle (DMSO)
Experimental: as §1, §4, §5

2008/17/4 = experiment: Tumor cell growth inhibition, Trypan blue exclusion, 2008/17/4; conditions: 2008/17/4, Resistant Ovarian; cell viability after 96 hours vs vehicle (DMSO)
Experimental: as §1, §4, §5

[3] = DU-145 cells, Table 7, read-out: DU-145 GI50
[4] = DU-145, DU145, Prostate (Ar−), read-out: GI50

GI50 (DU145; [3]): > 10000 nM
SMILES: COc1cc(OC)c(/C=C/S(=O)(=O)Cc2ccc(OC)c(OCCCN3CCOCC3)c2)c(OC)c1 [(E)-4-(3-(5-((2,4,6-trimethoxystyrylsulfonyl)methyl)-2-methoxyphenoxy)propyl)morpholine]

GI50 (DU145; [3]): 4 to 10 nM
SMILES: COc1cc(OC)c(/C=C/S(=O)(=O)Cc2ccc(OC)c(OC(=O)CN(C)C)c2)c(OC)c1 [(E)-5-((2,4,6-trimethoxystyrylsulfonyl)methyl)-2-methoxyphenyl 2-(dimethylamino)acetate]

GI50 (DU145; [3]): > 1000 nM
SMILES: COc1cc(OC)c(/C=C/S(=O)(=O)Cc2ccc(OC)c(OS(=O)(=O)c3ccc(C)cc3)c2)c(OC)c1 [(E)-5-((2,4,6-trimethoxystyrylsulfonyl)methyl)-2-methoxyphenyl 4-methylbenzenesulfonate]

SMILES: COc1cc(OC)c(/C=C/S(=O)(=O)Cc2ccc(OC)c(O)c2)c(OC)c1 [Example 1, (E)-5-((2,4,6-trimethoxystyrylsulfonyl)methyl)-2-methoxyphenol]
GI50 (BT20): 80 nM
GI50 (T47D): 10 nM
GI50 (MCF-7): 10 nM
GI50 (DU145; [4]): 5 nM
GI50 (LNCAP): 10 nM
GI50 (PC-3): 5 nM
GI50 (OV-CAR-3): 30 nM
GI50 (Sk-OV-3): 4 nM
GI50 (MIA-PACA2): 3 nM
GI50 (U87): 7 nM
GI50 (H157): 7 nM
GI50 (A549): 10 nM
GI50 (H187): 3 nM
GI50 (N417): 3 nM
GI50 (AGS): 5 nM
GI50 (RF1): 3 nM
GI50 (RF48): 1 nM
GI50 (CAKI-2): 6 nM
GI50 (COLO-320): 3 nM
GI50 (DLD-1): 7 nM
GI50 (HCT-116): 6 nM
GI50 (HCT-15): 7 nM
GI50 (SW480): 5 nM
GI50 (SK-MEL-28): 7 nM
GI50 (CEM [1]): 4 nM
GI50 (K562): 4 nM
GI50 (MOLT-4): 3 nM
GI50 (Namalwa): 3 nM
GI50 (Daudi): 3 nM
GI50 (Raji): 1 nM
GI50 (Mes-Sa): 5 nM
GI50 (Mes-Sa/Dx5): 5 nM
GI50 (CEM [2]): 4 nM
GI50 (Cem/C2): 3 nM
GI50 2008: 5 nM
GI50 (2008/17/4): 6 nM

SMILES: COc1cc(OC)c(/C=C/S(=O)(=O)Cc2ccc(OC)c(OP(=O)(O)O)c2)c(OC)c1 [Example 5, (E)-5-((2,4,6-trimethoxystyrylsulfonyl)methyl)-2-methoxyphenyl dihydrogen phosphate, disodium salt]
GI50 (BT20): 8 nM
GI50 (DU145; [4]): 5 nM
GI50 (MIA-PACA2): 4 nM
GI50 (U87): 9 nM
GI50 (H157): 12 nM
GI50 (A549): 20 nM
GI50 (N417): 4 nM
GI50 (AGS): 9 nM
GI50 (DLD-1): 12 nM
GI50 (HCT-15): 12 nM
GI50 (SK-MEL-28): 12 nM
